Results published in patent US4080466A, “Pharmaceutical compositions containing 4-hydroxyl-1,3-dithiolan-2-ylidene malonates” (Nihon Nohyaku Co., Ltd., priority 1976, dated 1978).
Entries after “also recorded” stand apart in the source; their conditions may differ.

What was measured:
[1] = system: chronic liver damage induced by thioacetamide; assay: Therapeutic Effect on Chronic Liver Damage (thioacetamide), BSP test; format: in vivo, rats (Spraque Dawley strain); conditions: normal diet + 0.2% of compound after 12 times TAA 100 mg/kg
Experimental: In the tests of this Example, TAA was repeatedly administered to animals to prepare test animals suffering from somewhat chronic liver damages, and then the present compounds were administered thereto to know whether or not the compounds were effective against chronic hepatitis.
The degree of the liver damage and the therapeutic effects of the compounds were evaluated according to BSP test. The BSP test is a method in which BSP (sulfobromophthalein sodium), a dye known to be quickly metabolized in and excreted from the liver, is intravenously injected into animals and, after a definite period of time, the blood is taken out to measure the amount of BSP remaining in the plasma. In case the animals are suffering from the lever damage, the dye will remain, according to the degree of the damage, at the stage where a major portion of BSP metabolized and excreted in the case of normal animals.
Five groups of rats (Spraque Dawley strain) were treated as follows:
Group A: The rats were orally administered with 100 mg/kg of thioacetamide,at 3 days intervals for 36 days (12 times of the administration), then were submitted for 10 days to a normal diet.
Group B: The rats were orally administered with 100 mg/kg of thioacetamide at 3 days intervals for 36 days (12 times of the administration), then were submitted for 10 days to the normal diet + 0.2% of compound 4.
Group C: The rats were orally administered with 100 mg/kg of thioacetamide at 3 days intervals for 36 days (12 times of the administration), then were submitted for 10 days to the normal diet + 0.2% of compound 2.
Group D: The rats were orally administered with 100 mg/kg of thioacetamide at 3 days intervals for 36 days (12 times of the administration), then were submitted for 10 days to the normal diet + 0.2% of anethol trithion.
Group E: The rats were submitted to the normal diet as the control.
Five rats were sacrificed from each group at appropriate intervals for BSP (sulfobromophthalein) test, the results of which were shown as amounts (mg) of BSP remaining in 1 dl of plasma.

[2] = system: bile flow; assay: Cholagogic Action: effect on bile flow; format: in vivo, rats (SD-JCL strain); conditions: 200 mg/kg oral; for Bile flow: before treatment = 100; for Quantity of total excreted bile relative to control: 5 hours after administration
Experimental: (§1) Drugs as choleresis are used for patients to improve bile flow. In the present example, the effect of the compound of the invention on the quantities of bile and biliary salt is investigated. Methods:
(§2) The male rats (4 week-aged, SD-JCL strain) were anesthetized with sodium pentobarbital (37.5 mg/kg, intraperitoneal injection). The abdominal cavity was opened through a midline incision. The common bile duct was catheterized with polyethylene tube o.d. 0.8 mm. The catheter was brought to the outside through the abdominal incision would prior to closing. Bile was collected from the catheter continuously with time intervals of one hour. The quantity of bile produced in one hour was determined by weighing and that of biliary salt was determined by enzymatic method (Ikagaku Jikkenho Koza 1B, Biological Constituents II, edited by Tamio YAMAKAWA). The amount of biliary salt was represented in the term of cholic acid equivalent.
(§3) In the representation of the results, the quantities of bile and biliary salt produced in one hour prior to the administration of drug were taken as 100. The compound of this invention was orally administered at the dose of 200 mg/kg. As reference, anethol trithion was used.

[3] = system: excretion of biliary salt; assay: Cholagogic Action: effect on the excretion of biliary salt; format: in vivo, rats (SD-JCL strain); conditions: 200 mg/kg oral; for Excretion of biliary salt: before treatment = 100; for Amount of total excreted biliary salts relative to control: 5 hours after administration
Experimental: as §1, §2, §3

[4] = system: alcohol metabolic function of liver; assay: Effect on Concentration of Ethyl alcohol in the Blood; format: in vivo, mice; conditions: 250 mg/kg oral, 6 h before ethyl alcohol 1,000 mg/kg
Experimental: After 6 hours, 1,000 mg/kg of ethyl alcohol was given orally. Blood was taken in a capillary from caudal vein at the time indicated in the results. The plasma was obtained by centrifugation. The concentration of ethyl alcohol in the plasma was measured by FID type gas liquid chromatography. Five mice were used for each group.

[5] = system: fatty liver induced by carbon tetrachloride; assay: Therapeutic Effect on Fatty Liver (carbon tetrachloride); format: in vivo, rats (SD strain); conditions: 10 days; for Degree of fatty liver (histopathological examination): one symbol per animal
Experimental: Methods: […] The treated animals were left for 3 days after the last administration to maximize the manifestation of fatty liver. […] It was orally given everyday for 10 days at the dose of 50 or 250 mg/kg. On the 11th day, the animals were sacrificed. The therapeutic effect was evaluated by determining the content of liquid in the liver (triglyceride and total lipid) and examining the histopathological changes. Triglyceride and total lipid were determined colorimetrically by chromotropic acid method and Bragdon's oxidation method, respectively. Indices for the histopathological change is as follows: […]

[6] = system: acute liver damage induced by carbon tetrachloride; assay: Protective Effect on Acute Liver Damage associated with Centrilobular Necrosis (carbon tetrachloride); format: in vivo, mice (dd-strain); conditions: 250 mg/kg oral, average of 5 to 6 mice; for Liver damage index: 6 h before CCl4 (0.05 ml/kg oral), score 0 Normal, 2 slight, 4 clear, 6 heavy damage; for p-GPT (plasma glutamic-pyruvic transaminase activity): 6 h before CCl4, 24 h after CCl4, values over 1,000 regarded as 1,000

SMILES	BSP remaining in plasma ([1]; 2 days) [mg/dL]	BSP remaining in plasma ([1]; 5 days) [mg/dL]	BSP remaining in plasma ([1]; 10 days) [mg/dL]	Bile flow ([2]; 1 hour after treatment)	Bile flow ([2]; 2 hours after treatment)	Bile flow ([2]; 3 hours after treatment)	Bile flow ([2]; 4 hours after treatment)	Quantity of total excreted bile relative to control [2] [times]	Bile flow ([2]; 5 hours after treatment)	Excretion of biliary salt ([3]; 1 hour after treatment)	Excretion of biliary salt ([3]; 2 hours after treatment)	Excretion of biliary salt ([3]; 3 hours after treatment)	Excretion of biliary salt ([3]; 4 hours after treatment)	Amount of total excreted biliary salts relative to control [3] [times]	Excretion of biliary salt ([3]; 5 hours after treatment)	Concentration of Ethyl alcohol in Plasma ([4]; 0 min) [ppm]	Concentration of Ethyl alcohol in Plasma ([4]; 5 min) [ppm]	Concentration of Ethyl alcohol in Plasma ([4]; 15 min) [ppm]	Concentration of Ethyl alcohol in Plasma ([4]; 30 min) [ppm]	Concentration of Ethyl alcohol in Plasma ([4]; 60 min) [ppm]	other results
CC(C)OC(=O)C(C(=O)OC(C)C)=C1SCC(O)S1 (centres unmarked) [Compound 2, Diisopropyl 4-hydroxy-1,3-dithiolan-2-ylidene malonate]	7.0 ± 2.8	3.1 ± 0.7	0.8 ± 0.2	112 ± 2.4	117 ± 6.8	101 ± 7.0	97 ± 8.3	1.13	80 ± 7.3	102 ± 7.3	100 ± 5.8	106 ± 7.9	97 ± 7.2	1.43	90 ± 5.3	10±7	711±95	558±104	426±96	13±6	Total lipid ([5]; 50 mg/kg oral): 82.3 ± 15.1 mg/g-liver; Triglyceride ([5]; 50 mg/kg oral): 38.6 ± 8.5 mg/g-liver; Degree of fatty liver (histopathological examination) ([5]; 50 mg/kg oral): ± ± + ± ± + ±; Total lipid ([5]; 250 mg/kg oral): 68.3 ± 10.3 mg/g-liver; Triglyceride ([5]; 250 mg/kg oral): 21.6 ± 7.3 mg/g-liver; Degree of fatty liver (histopathological examination) ([5]; 250 mg/kg oral): - - ± ± ± ± -; Liver damage index [6]: 0.1; p-GPT (plasma glutamic-pyruvic transaminase activity) [6]: 20 Karmen units
CCOC(=O)C(C(=O)OC(C)C)=C1SCC(O)S1 (centres unmarked) [Compound 4, Ethyl isopropyl 4-hydroxy-1,3-dithiolan-2-ylidene malonate]	7.2 ± 1.2	3.6 ± 0.5	0.3 ± 0.1	108 ± 2.1	120 ± 7.7	107 ± 6.8	98 ± 7.2	1.11	88 ± 5.3	100 ± 7.2	106 ± 7.8	98 ± 4.3	90 ± 7.7	1.37	82 ± 6.8	9±4	730±92	536±113	373±105	7±2	Total lipid ([5]; 50 mg/kg oral): 87.6 ± 7.2 mg/g-liver; Triglyceride ([5]; 50 mg/kg oral): 40.6 ± 8.2 mg/g-liver; Degree of fatty liver (histopathological examination) ([5]; 50 mg/kg oral): + + + ++; also recorded: ± ± + ± ± ± +; Total lipid ([5]; 250 mg/kg oral): 70.3 ± 7.7 mg/g-liver; Triglyceride ([5]; 250 mg/kg oral): 25.3 ± 4.2 mg/g-liver; Degree of fatty liver (histopathological examination) ([5]; 250 mg/kg oral): ± ± ± - - - ±; Liver damage index [6]: 0.1; p-GPT (plasma glutamic-pyruvic transaminase activity) [6]: 40 Karmen units
